Literature values in patent US20070141147A1, “SEQUENTIAL RELEASE PHARMACEUTICAL FORMULATIONS” (Auriga Laboratories, Inc., priority 2005, published 2007).
Where a name gives a salt, the structure may show the parent alone.

Experiments:
[1] = water and alcohol
[2] = in vivo

Row | SMILES | solubility [1] | plasma half-life [2]
1 | CNCC(O)c1cccc(O)c1 (stereo in doubt) [Phenylephrine hydrochloride, (S)-3-hydroxy-[alpha][(methylamino)methylbenzenemethanol hydrochloride] | freely soluble | –
2 | COc1ccccc1OCC(O)CO (stereo not drawn) [Guaifenesin, 3-(2-methoxyphenoxy)-1,2-propanediol] | soluble | –
3 | C[N+]1(C)[C@@H]2C[C@@H](OC(=O)[C@H](CO)c3ccccc3)C[C@H]1[C@@H]1O[C@@H]12 [methscopolamine] | – | relatively short
